Our source for the IC50 values is patent US9604996B2 (Bayer Pharma Aktiengesellschaft, priority 2013, dated 2017).

One may read the IC50 as the concentration needed to halve the response being measured.

For the experiment, the target named is T1, human adenosine A2b receptor (Homo sapiens, UniProt P29275).
T1 construct: expressed in transfected cells; host or cells: CHO-K1 (Chinese Hamster Ovary) with CRE-luciferase reporter
T1 sequence (P29275 1-332): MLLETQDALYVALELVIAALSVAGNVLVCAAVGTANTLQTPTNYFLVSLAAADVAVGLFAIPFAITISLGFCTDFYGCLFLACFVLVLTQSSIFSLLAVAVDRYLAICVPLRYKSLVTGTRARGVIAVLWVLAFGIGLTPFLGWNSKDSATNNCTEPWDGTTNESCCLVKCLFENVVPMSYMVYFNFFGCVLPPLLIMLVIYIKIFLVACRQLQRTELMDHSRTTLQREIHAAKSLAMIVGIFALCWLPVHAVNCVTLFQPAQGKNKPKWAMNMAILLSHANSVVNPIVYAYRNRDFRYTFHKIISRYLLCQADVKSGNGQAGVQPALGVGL
The experiment in a line: Cellular reporter gene (CRE-luciferase) A2b receptor antagonist assay in recombinant CHO-K1 cells stimulated with NECA. Type of experiment: cell-based. As to conditions: recombinant CHO-K1 cell line, co-incubation with EC50 concentration of NECA, 3 hours, in some cases means, rounded to two significant digits. An outline of the steps:
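CHO-K1 cells expressing human A2b receptor with a CRE-driven firefly luciferase reporter, co-incubated with test compound and NECA at its same-day EC50 concentration. Luminescence read 3 hours after NECA addition.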

Turning to `Cc1c(C(=O)N2CCC(O)CC2)sc2c1c(=O)n(CCn1ccnc1)c(=O)n2CCC(F)(F)F` [Example 55, 6-[(4-Hydroxypiperidin-1-yl)carbonyl]-3-[2-(1H-imidazol-1-yl)ethyl]-5-methyl-1-(3,3,3-trifluoropropyl)thieno[2,3-d]pyrimidine-2,4(1H,3H)-dione], the IC50 came out at 250 nM.

On to `CCCn1c(=O)c2c(C)c(C(=O)N3CCC(O)(CO)CC3)sc2n(CCC(F)(F)F)c1=O` [Example 77, 6-{[4-Hydroxy-4-(hydroxymethyl)piperidin-1-yl]carbonyl}-5-methyl-3-propyl-1-(3,3,3-trifluoropropyl)thieno[2,3-d]pyrimidine-2,4(1H,3H)-dione], for which the IC50 was determined as 75 nM.

For `Cc1c(C(=O)N2CCC(O)CC2)sc2c1c(=O)n(CCC1CC1)c(=O)n2CCC(F)(F)F` [Example 63, 3-(2-Cyclopropylethyl)-6-[(4-hydroxypiperidin-1-yl)carbonyl]-5-methyl-1-(3,3,3-trifluoropropyl)thieno[2,3-d]pyrimidine-2,4(1H,3H)-dione], the IC50 turned out to be 210 nM.

As for `CCn1c(=O)c2c(C)c(C(=O)N3CCC(C)(O)CC3)sc2n(CCOC(F)(F)F)c1=O` [Example 111, 3-Ethyl-6-[(4-hydroxy-4-methylpiperidin-1-yl)carbonyl]-5-methyl-1-[2-(trifluoromethoxy)ethyl]thieno[2,3-d]pyrimidine-2,4(1H,3H)-dione], the IC50 was found to be 4 nM.

On to `CCc1c(C(=O)N2CCC(O)(CC)CC2)sc2c1c(=O)n(CC)c(=O)n2CCC(F)(F)F` [Example 128, 3,5-Diethyl-6-[(4-ethyl-4-hydroxypiperidin-1-yl)carbonyl]-1-(3,3,3-trifluoropropyl)thieno[2,3-d]pyrimidine-2,4(1H,3H)-dione], for which the IC50 came to 13 nM.

Regarding `O=C(c1cc2c(=O)n(CCc3ccccc3)c(=O)n(CCC(F)(F)F)c2s1)N1CCC(O)(CO)CC1` [Example 92, 6-{[4-Hydroxy-4-(hydroxymethyl)piperidin-1-yl]carbonyl}-3-(2-phenylethyl)-1-(3,3,3-trifluoropropyl)thieno[2,3-d]pyrimidine-2,4(1H,3H)-dione], the IC50 was 370 nM.

In the case of `Cc1c(C(=O)N2CCC(O)CC2)sc2c1c(=O)n(CC(c1ccccc1)C(F)(F)F)c(=O)n2CCC(F)(F)F` (racemic) [Example 104, 6-[(4-Hydroxypiperidin-1-yl)carbonyl]-5-methyl-3-(3,3,3-trifluoro-2-phenylpropyl)-1-(3,3,3-trifluoropropyl)thieno[2,3-d]pyrimidine-2,4(1H,3H)-dione], the IC50 worked out at 9.1 nM.

In the case of `Cc1c(C(=O)N2CCNC(=O)C2)sc2c1c(=O)n(CC(F)(F)c1ccccc1)c(=O)n2CCC(F)(F)F` [Example 93, 3-(2,2-Difluoro-2-phenylethyl)-5-methyl-6-[(3-oxopiperazin-1-yl)carbonyl]-1-(3,3,3-trifluoropropyl)thieno[2,3-d]pyrimidine-2,4(1H,3H)-dione], the IC50 worked out at 36 nM.

For `CCn1c(=O)c2c(C)c(C(=O)N3CCC(O)C(O)C3)sc2n(CCC(F)(F)F)c1=O` (racemic) [Example 116, 6-[(3,4-Dihydroxypiperidin-1-yl)carbonyl]-3-ethyl-5-methyl-1-(3,3,3-trifluoropropyl)thieno [2,3-d]pyrimidine-2,4(1H,3H)-dione], the IC50 came out at 200 nM.

Turning to `Cc1c(C(=O)N2CCC(C)(O)CC2)sc2c1c(=O)n(CCc1ccccc1)c(=O)n2CCOC(F)(F)F` [Example 109, 6-[(4-Hydroxy-4-methylpiperidin-1-yl)carbonyl]-5-methyl-3-(2-phenylethyl)-1-[2-(trifluoromethoxy)ethyl]thieno[2,3-d]pyrimidine-2,4(1H,3H)-dione], the IC50 turned out to be 3.9 nM.

For `COCCn1c(=O)n(CC(F)(F)c2ccccc2)c(=O)c2c(C)c(C(=O)N3CCC(O)CC3)sc21` [Example 52, 3-(2,2-Difluoro-2-phenylethyl)-6-[(4-hydroxypiperidin-1-yl)carbonyl]-1-(2-methoxyethyl)-5-methylthieno[2,3-d]pyrimidine-2,4(1H,3H)-dione], the IC50 was 210 nM.

For `O=C(c1cc2c(=O)n(CCc3ccccc3)c(=O)n(CCC(F)(F)F)c2s1)N1CCC(O)CC1` [Example 90, 6-[(4-Hydroxypiperidin-1-yl)carbonyl]-3-(2-phenylethyl)-1-(3,3,3-trifluoropropyl)thieno[2,3-d]pyrimidine-2,4(1H,3H)-dione], the IC50 was determined as 440 nM.

Regarding `CCn1c(=O)c2c(C(C)F)c(C(=O)N3CCC(C)(O)CC3)sc2n(CCC(F)(F)F)c1=O` (racemic) [Example 146, 3-Ethyl-5-(1-fluoroethyl)-6-[(4-hydroxy-4-methylpiperidin-1-yl)carbonyl]-1-(3,3,3-trifluoropropyl)thieno[2,3-d]pyrimidine-2,4(1H,3H)-dione], the IC50 was found to be 40 nM.

Consider `Cc1c(C(=O)N2CCC(C)(O)CC2)sc2c1c(=O)n(CCc1ccccc1)c(=O)n2CCC(F)(F)F` [Example 67, 6-[(4-Hydroxy-4-methylpiperidin-1-yl)carbonyl]-5-methyl-3-(2-phenylethyl)-1-(3,3,3-trifluoropropyl)thieno[2,3-d]pyrimidine-2,4(1H,3H)-dione], for which the IC50 came out at 13 nM.

On to `CCn1c(=O)c2c(C)c(C(=O)N3CCC(O)CC3)sc2n(CCC=C(F)F)c1=O` [Example 19, 1-(4,4-Difluorobut-3-en-1-yl)-3-ethyl-6-[(4-hydroxypiperidin-1-yl)carbonyl]-5-methylthieno[2,3-d]pyrimidine-2,4(1H,3H)-dione], for which the IC50 stood at 92 nM.

As to `Cc1c(C(=O)N2CCC(O)CC2)sc2c1c(=O)n(CC(C)(O)c1ccccc1)c(=O)n2CCC(F)(F)F` (racemic) [Example 105, 3-(2-Hydroxy-2-phenylpropyl)-6-[(4-hydroxypiperidin-1-yl)carbonyl]-5-methyl-1-(3,3,3-trifluoropropyl)thieno[2,3-d]pyrimidine-2,4(1H,3H)-dione], the IC50 was determined as 69 nM.

Regarding `O=C(c1sc2c(c1C(F)F)c(=O)n(CCc1ccccc1)c(=O)n2CCC(F)(F)F)N1CCC(O)(CO)CC1` [Example 86, 5-(Difluoromethyl)-6-{[4-hydroxy-4-(hydroxymethyl)piperidin-1-yl]carbonyl}-3-(2-phenylethyl)-1-(3,3,3-trifluoropropyl)thieno[2,3-d]pyrimidine-2,4(1H,3H)-dione], the IC50 worked out at 12 nM.

Take `COC(C)Cn1c(=O)c2c(C)c(C(=O)N3CCC(O)CC3)sc2n(CCC(F)(F)F)c1=O` (racemic) [Example 65, 6-[(4-Hydroxypiperidin-1-yl)carbonyl]-3-(2-methoxypropyl)-5-methyl-1-(3,3,3-trifluoropropyl)thieno[2,3-d]pyrimidine-2,4(1H,3H)-dione (racemate)]: the IC50 is 96 nM.

In the case of `Cc1c(C(=O)N2CCC(O)(CO)CC2)sc2c1c(=O)n(CCc1ccccc1)c(=O)n2CCC(F)(F)F` [Example 68, 6-{[4-Hydroxy-4-(hydroxymethyl)piperidin-1-yl]carbonyl}-5-methyl-3-(2-phenylethyl)-1-(3,3,3-trifluoropropyl)thieno[2,3-d]pyrimidine-2,4(1H,3H)-dione], the IC50 amounted to 20 nM.

`CCn1c(=O)c2c(C)c(C(=O)N3CCNC(=O)C3(C)C)sc2n(CCC(F)(F)F)c1=O` [Example 38, 6-[(2,2-Dimethyl-3-oxopiperazin-1-yl)carbonyl]-3-ethyl-5-methyl-1-(3,3,3-trifluoropropyl)thieno[2,3-d]pyrimidine-2,4(1H,3H)-dione]: the IC50 turned out to be 140 nM.

As to `CCCn1c(=O)c2c(C(F)F)c(C(=O)N3CCC(C)(O)CC3)sc2n(CCC(F)(F)F)c1=O` [Example 142, 5-(Difluoromethyl)-6-[(4-hydroxy-4-methylpiperidin-1-yl)carbonyl]-3-propyl-1-(3,3,3-trifluoropropyl)thieno[2,3-d]pyrimidine-2,4(1H,3H)-dione], the IC50 came out at 53 nM.

Regarding `Cc1c(C(=O)N2CCC(O)CC2)sc2c1c(=O)n(CCc1cccc(F)c1)c(=O)n2CCC(F)(F)F` [Example 9, 3-[2-(3-Fluorophenyl)ethyl]-6-[(4-hydroxypiperidin-1-yl)carbonyl]-5-methyl-1-(3,3,3-trifluoropropyl)thieno[2,3-d]pyrimidine-2,4(1H,3H)-dione], the IC50 came out at 52 nM.

On to `Cc1c(C(=O)N2CCC(O)CC2)sc2c1c(=O)n(CCc1cccnc1)c(=O)n2CCC(F)(F)F` [Example 15], for which the IC50 was 32 nM.

On to `CCCn1c(=O)c2c(C)c(C(=O)N3CCC(O)(CO)CC3)sc2n(CCOC)c1=O` [Example 78, 6-{[4-Hydroxy-4-(hydroxymethyl)piperidin-1-yl]carbonyl}-1-(2-methoxyethyl)-5-methyl-3-propylthieno[2,3-d]pyrimidine-2,4(1H,3H)-dione], for which the IC50 worked out at 350 nM.

Consider `COCCn1c(=O)n(CCc2ccccc2)c(=O)c2c(C)c(C(=O)N3CCNC(=O)C3)sc21` [Example 28, 1-(2-Methoxyethyl)-5-methyl-6-[(3-oxopiperazin-1-yl)carbonyl]-3-(2-phenylethyl)thieno[2,3-d]pyrimidine-2,4(1H,3H)-dione], for which the IC50 worked out at 150 nM.

Turning to `COC(Cn1c(=O)c2c(C)c(C(=O)N3CCC(O)CC3)sc2n(CCC(F)(F)F)c1=O)c1ccccc1` (single isomer, unassigned; enantiomer 1) [Example 48, 6-[(4-Hydroxypiperidin-1-yl)carbonyl]-3-(2-methoxy-2-phenylethyl)-5-methyl-1-(3,3,3-trifluoropropyl)thieno[2,3-d]pyrimidine-2,4(1H,3H)-dione (enantiomer 1)], the IC50 was determined as 59 nM.
